Measurements reported in patent US8283312B2, “Compositions and methods for modulating body weight and treating obesity-related disorders” (The Research Foundation of State University of New York, priority 2005, dated 2012).
Read-outs that look alike come from different tables or passages of the source. Where no end group is shown, it is not given here. The star is where a group is joined. Octanoyl = CCCCCCCC(=O)*

Legend:
RYGB rats = test: Food intake and body weight of RYGB rats given test substance via implanted intraperitoneal pump; format: in vivo, rat
Experimental: Daily Measurements: Postoperatively, daily body weight (BW) and caloric intake were measured each morning. The PF group was given the average food intake consumed the previous day by the RYGB group. Daily changes in BW, plotted every three day, are shown in FIG. 2 and the mean change per post-operative time periods are expressed in Table 1 using the same construct as earlier reported in our previous study (6).
A pump (Model 2002, Alza Corp. Palo Alto, Calif.) was implanted i.p. in each of 5 RYGB rats thirty days after RYGB. The pump was loaded with either the PYY receptor antagonist, B11E0246 (TOCRIS, Ellisville, Mo.), or a control solution (DMSO), and released its ingredient at the rate of about 8.3 μl/day (360 nm B11E0246/Kg/day). Food intake was measured as described above.
(§1) In a second experiment, a pump was implanted i.p. in each of 5 RYGB rats thirty days after RYGB. The pump was loaded with either ghrelin, or a control solution (DMSO), and released its ingredient at the rate of 8.3 μl/day (60 ng ghrelin/Kg/day). Food intake was measured as described above.
as §1, with “third” for “second”, “either a combination of the PYY receptor antagonist B11E0246 and” for “either”, “(DMSO). The pump” for “(DMSO), and”, “(360 nm B11E0246/Kg/day and 60” for “(60”

mice = settings: cited from earlier work
obese subjects = settings: 12 obese subjects, as compared to 12 lean subjects; cited from earlier work
[1] = physiological levels of ghrelin (60 ng/Kg/day) alone, i.p. pump, FIG. 7

N=C(N)NCCC[C@H](NC(=O)CC1(CC(=O)N2CCN(C3c4ccccc4NC(=O)c4ccccc43)CC2)CCCC1)C(=O)NCCn1c(=O)n(-c2ccccc2)n(-c2ccccc2)c1=O (stereo partly drawn) [B11E0246]
daily and cumulative food intake (RYGB rats; i.p. pump implanted thirty days after RYGB, 360 nm B11E0246/Kg/day, vs control solution (DMSO), FIG. 6): increased daily and cumulative food intake

PYY(3-36): functional analog of PYY; peptide consisting of amino acid 3 to 36 of PYY
food intake (mice; freely feeding mice): unchanged | food intake (mice; single intraperitoneal injection, 24 h fasted mice): significant reduction of food intake for 24 h but not for 48 h | decrease of ad libitum food intake per meal (obese subjects): 33%

ghrelin: peptide of 28 amino acids, in which the serine 3 residue is n-octanoylated; gut hormone that stimulates food intake (GSS(Octanoyl)FLSPEHQRVQQRKESKKPPAKLQPR; UniProt Q9UBU3 24-51, looked up)
body weight (RYGB rats; [1]): did not significantly increase food intake or body weight | food intake (RYGB rats; [1]): did not significantly increase food intake or body weight
